The structures appear in SMILES notation. “And” between values parts separate entries of the source, which are not always exact repeats. Equal values may be shown once.

In paper PMC6268315, “Investigating the Spectrum of Biological Activity of Substituted Quinoline-2-Carboxamides and Their Isosteres ^†” (Molecules, 2012) one finds melting point and IC50 data, which are given here for 49 compounds.

Series [1] deals with photosynthetic electron transport (PET) in spinach chloroplasts. Description: Inhibition of photosynthetic electron transport (PET) in spinach chloroplasts. In kind it is biochemical, Spinacia oleracea L. Conditions: photoreduction of DCPIP, pH 7.2. The procedure: Chloroplasts were prepared from spinach (Spinacia oleracea L.) according to Masarovicova and Kralova. The inhibition of photosynthetic electron transport (PET) in spinach chloroplasts was determined spectrophotometrically (Genesys 6, Thermo Scientific, USA), using an artificial electron acceptor 2,6-dichlorophenol-indophenol (DCIPP) according to Kralova et al., and the rate of photosynthetic electron transport was monitored as a photoreduction of DCPIP. The measurements were carried out in phosphate buffer (0.02 mol/L, pH 7.2) containing sucrose (0.4 mol/L), MgCl2 (0.005 mol/L) and NaCl (0.015 mol/L). The chlorophyll content was 30 mg/L in these experiments and the samples were irradiated (~100 W/m^2 with 10 cm distance) with a halogen lamp (250 W) using a 4 cm water filter to prevent warming of the samples (suspension temperature 22 °C). The studied compounds were dissolved in DMSO due to their limited water solubility. […] The inhibitory efficiency of the studied compounds was expressed by IC50 values, i.e., by molar concentration of the compounds causing 50% decrease in the oxygen evolution rate relative to the untreated control.

As a reminder, the melting point is the temperature, or range, at which the solid turns liquid. `O=C(c1ccc2ccccc2n1)N1CCCCC1` [Compound 4, 2-(Piperidin-1-ylcarbonyl)quinoline] showed a melting point of 83 to 84 °C. Usually IC50 stands for the concentration that inhibits the measured activity by half. Turning to `O=C(NCc1ccccc1)c1ccc2ccccc2n1` [Compound 10, N-Benzylquinoline-2-carboxamide], the melting point is 123 to 124 °C. In addition, the IC50 in series [1] came to 59.4 µM.

Consider `O=C(Nc1ccccc1O)c1ccc2ccccc2n1` [Compound 12a, N-(2-Hydroxyphenyl)quinoline-2-carboxamide], for which the melting point was 219 to 220 °C. Also, the IC50 in series [1] was 16.3 µM. As to `O=C(Nc1cccc(O)c1)c1ccc2ccccc2n1` [Compound 12b, N-(3-Hydroxyphenyl)quinoline-2-carboxamide], the melting point is 154 to 155 °C.

`O=C(Nc1ccc(O)cc1)c1ccc2ccccc2n1` [Compound 12c, N-(4-Hydroxyphenyl)quinoline-2-carboxamide] registered a melting point of 230 to 231 °C.

In the case of `COc1ccccc1NC(=O)c1ccc2ccccc2n1` [Compound 13a, N-(2-Methoxyphenyl)quinoline-2-carboxamide], the melting point fell in the range of 111 to 112 °C. In the case of `COc1cccc(NC(=O)c2ccc3ccccc3n2)c1` [Compound 13b, N-(3-Methoxyphenyl)quinoline-2-carboxamide], the melting point was 117 to 118 °C. Take `COc1ccc(NC(=O)c2ccc3ccccc3n2)cc1` [Compound 13c, N-(4-Methoxyphenyl)quinoline-2-carboxamide]: the melting point lay in the range of 130 to 131 °C. `Cc1ccccc1NC(=O)c1ccc2ccccc2n1` [Compound 14a, N-(2-Methylphenyl)quinoline-2-carboxamide] showed a melting point of 100 to 101 °C. In series [1], this compound gave an IC50 of 143 µM. For the compound `Cc1ccc(NC(=O)c2ccc3ccccc3n2)cc1` [Compound 14c, N-(4-Methylphenyl)quinoline-2-carboxamide], the melting point was 107 to 108 °C. The compound `O=C(Nc1ccccc1F)c1ccc2ccccc2n1` [Compound 15a, N-(2-Fluorophenyl)quinoline-2-carboxamide] had a melting point of 116 to 117 °C. In addition, half-maximal inhibition in series [1] (IC50) required 98.1 µM. In the case of `O=C(Nc1cccc(F)c1)c1ccc2ccccc2n1` [Compound 15b, N-(3-Fluorophenyl)quinoline-2-carboxamide], the melting point lay within 126 to 127 °C. The compound further came in with an IC50 in series [1] of 86.9 µM. For `O=C(Nc1ccc(F)cc1)c1ccc2ccccc2n1` [Compound 15c, N-(4-Fluorophenyl)quinoline-2-carboxamide], the melting point lay in the range of 115 to 116 °C. The 50% inhibitory concentration (IC50) in series [1] is 75.3 µM. Turning to `O=C(Nc1ccccc1Cl)c1ccc2ccccc2n1` [Compound 16a, N-(2-Chlorophenyl)quinoline-2-carboxamide], the melting point was in the range of 130 to 131 °C. For the same compound, in series [1], the half-inhibitory concentration (IC50) worked out at 56.3 µM. For `O=C(Nc1cccc(Cl)c1)c1ccc2ccccc2n1` [Compound 16b, N-(3-Chlorophenyl)quinoline-2-carboxamide], in that order: 127 to 128 °C and 91.9 µM. For `O=C(Nc1ccc(Cl)cc1)c1ccc2ccccc2n1` [Compound 16c, N-(4-Chlorophenyl)quinoline-2-carboxamide] the same measures were 134 to 135 °C and 148 µM. `O=C(Nc1ccccc1Br)c1ccc2ccccc2n1` [Compound 17a, N-(2-Bromophenyl)quinoline-2-carboxamide] came in with a melting point of 134 to 135 °C. The compound further registered an IC50 in series [1] of 92.2 µM. As to `O=C(Nc1cccc(Br)c1)c1ccc2ccccc2n1` [Compound 17b, N-(3-Bromophenyl)quinoline-2-carboxamide], the melting point is 139 to 140 °C. Also, the IC50 in series [1] is 409 µM. For `O=C(Nc1ccc(Br)cc1)c1ccc2ccccc2n1` [Compound 17c, N-(4-Bromophenyl)quinoline-2-carboxamide], the melting point was in the range of 157 to 158 °C. Further, inhibition in series [1] was half-maximal at 308 µM (IC50). In turn, `O=C(Nc1ccccc1C(F)(F)F)c1ccc2ccccc2n1` [Compound 18a, N-(2-Trifluoromethylphenyl)quinoline-2-carboxamide] came in with a melting point of 120 to 121 °C. The IC50 in series [1] worked out at 109 µM. For `O=C(Nc1cccc(C(F)(F)F)c1)c1ccc2ccccc2n1` [Compound 18b, N-(3-Trifluoromethylphenyl)quinoline-2-carboxamide], in that order: 121 to 122 °C and 330 µM. For the compound `O=C(Nc1ccc(C(F)(F)F)cc1)c1ccc2ccccc2n1` [Compound 18c, N-(4-Trifluoromethylphenyl)quinoline-2-carboxamide], the melting point fell in the range of 147 to 148 °C.

The compound `O=C(Nc1ccccc1[N+](=O)[O-])c1ccc2ccccc2n1` [Compound 19a, N-(2-Nitrophenyl)quinoline-2-carboxamide] returned a melting point of 181 to 182 °C.

`O=C(Nc1cccc([N+](=O)[O-])c1)c1ccc2ccccc2n1` [Compound 19b, N-(3-Nitrophenyl)quinoline-2-carboxamide] showed a melting point of 189 to 190 °C. As to `O=C(Nc1ccc([N+](=O)[O-])cc1)c1ccc2ccccc2n1` [Compound 19c, N-(4-Nitrophenyl)quinoline-2-carboxamide], the melting point is 227 to 228 °C. `CC(C)NC(=O)c1ccc2ccccc2c1` [Compound 20, N-Isopropyl-2-naphthamide] registered a melting point of 174 to 176 °C. In addition, half-maximal inhibition in series [1] (IC50) required 353 µM.

In the case of `CCCCCCCCCCCCNC(=O)c1ccc2ccccc2c1` [Compound 21, N-Dodecyl-2-naphthamide], the melting point was 102 to 103 °C. This compound gave an IC50 in series [1] of 845 µM. With `O=C(c1ccc2ccccc2c1)N1CCCCC1` [Compound 23, 1-(2-Naphthoyl)piperidine], the melting point was 97 to 98 °C.

As for `O=C(NC1CCCC1)c1ccc2ccccc2c1` [Compound 24, N-Cyclopentyl-2-naphthamide], the melting point fell in the range of 190 to 191 °C. `O=C(NC1CCCCC1)c1ccc2ccccc2c1` [Compound 25, N-Cyclohexyl-2-naphthamide] had a melting point of 184 to 185 °C. `O=C(NC1CCCCCC1)c1ccc2ccccc2c1` [Compound 26, N-Cycloheptyl-2-naphthamide] registered a melting point of 157 to 158 °C. In series [1], this compound had an IC50 of 216 µM. `O=C(NC1CCCCCCC1)c1ccc2ccccc2c1` [Compound 27, N-Cyclooctyl-2-naphthamide] registered a melting point of 145 to 146 °C. Moreover, in series [1], half-maximal inhibition (IC50) was put at 688 µM. Consider `O=C(Nc1ccccc1)c1ccc2ccccc2c1` [Compound 28, N-Phenyl-2-naphthamide], for which the half-maximal inhibitory concentration (IC50) in series [1] is 20.7 µM. That is a double-digit micromolar value. On to `O=C(NCc1ccccc1)c1ccc2ccccc2c1` [Compound 29, N-Benzyl-2-naphthamide], for which the melting point was in the range of 138 to 139 °C. In addition, half-maximal inhibition in series [1] (IC50) was put at 7.5 µM. For the compound `O=C(NCCc1ccccc1)c1ccc2ccccc2c1` [Compound 30, N-(2-Phenylethyl)-2-naphthamide], the melting point is 133 to 134 °C.

Turning to `O=C(Nc1cccc(O)c1)c1ccc2ccccc2c1` [Compound 31b, N-(3-Hydroxyphenyl)-2-naphthamide], the melting point stood at 194 °C. The compound `Cc1ccccc1NC(=O)c1ccc2ccccc2c1` [Compound 33a, N-(2-Methylphenyl)-2-naphthamide] showed a melting point of 146 °C. For `Cc1cccc(NC(=O)c2ccc3ccccc3c2)c1` [Compound 33b, N-(3-Methylphenyl)-2-naphthamide], the melting point amounted to 160 °C. On the same count and under the same terms, in the case of `Cc1ccc(NC(=O)c2ccc3ccccc3c2)cc1` [Compound 33c, N-(4-Methylphenyl)-2-naphthamide] it was 195 °C; in that of `O=C(Nc1ccccc1F)c1ccc2ccccc2c1` [Compound 34a, N-(2-Fluorophenyl)-2-naphthamide], 122 °C; in that of `O=C(Nc1cccc(F)c1)c1ccc2ccccc2c1` [Compound 34b, N-(3-Fluorophenyl)-2-naphthamide], 167 °C. Compound `O=C(Nc1ccc(F)cc1)c1ccc2ccccc2c1` [Compound 34c, N-(4-Fluorophenyl)-2-naphthamide] came in with a melting point of 191 °C. In the case of `O=C(Nc1ccccc1Cl)c1ccc2ccccc2c1` [Compound 35a, N-(2-Chlorophenyl)-2-naphthamide], the melting point came to 116 °C. Consider `O=C(Nc1ccc(Cl)cc1)c1ccc2ccccc2c1` [Compound 35c, N-(4-Chlorophenyl)-2-naphthamide], for which the melting point was 218 °C. With `O=C(Nc1ccccc1Br)c1ccc2ccccc2c1` [Compound 36a, N-(2-Bromophenyl)-2-naphthamide], the melting point was found to be 123 °C. The same measure, in the same setting: in the case of `O=C(Nc1ccc(Br)cc1)c1ccc2ccccc2c1` [Compound 36c, N-(4-Bromophenyl)-2-naphthamide] it was 231 °C; in that of `O=C(Nc1ccc(C(F)(F)F)cc1)c1ccc2ccccc2c1` [Compound 37c, N-(4-Trifluoromethylphenyl)-2-naphthamide], 224 °C; in that of `O=C(Nc1ccccc1[N+](=O)[O-])c1ccc2ccccc2c1` [Compound 38a, N-(2-Nitrophenyl)-2-naphthamide], 136 °C. In the case of `CN(C)C(=O)Nc1ccc(Cl)c(Cl)c1` [DCMU, 3-(3,4-dichlorophenyl)-1,1-dimethylurea, reference compound], in series [1], the IC50 was ~1.9 µM and 1.9 µM.
